The text below walks through data of patent publication US20250340574A1, “MODULATORS OF CYSTIC FIBROSIS TRANSMEMBRANE CONDUCTANCE REGULATOR” (Vertex Pharmaceuticals Incorporated, priority 2022, published 2025).

The conditions of series [1]: from Cc1cccc(C)c1-c1cc(OC[C@@H](CC(C)(C)C)NCc2cn3ccc(Br)cc3n2)nc(NS(=O)(=O)c2cccc(C(=O)O)c2)n1; amide bond; 13-membered ring; CDMT/NMM; DMF; 28.2 mM; 3.08 h.
Series [2] concerns the target T1, CFTR (F508del/MF-HBE cells) (Homo sapiens, UniProt P13569, DEL508-508).
T1 construct: human bronchial epithelial (HBE) cells derived from CF subjects heterozygous for F508del and a minimal function CFTR mutation (F508del/MF-HBE); endogenous in cells; host or cells: Primary human bronchial epithelial cells from CF subjects (F508del/MF genotype), differentiated at an air-liquid interface
The series can be described thus: Ussing chamber assay of CFTR-mediated short-circuit currents, Assay B (0.00001 μM to 25 μM, 12 concentrations). Format: cell-based. The conditions noted are these: with 33 nM potentiator and 18 μM Tezacaftor, 20% human serum; for Emax: 18-24 hours, read-out: B Max activity (%). The gist of the method: (§1)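 F508del/MF-HBE cells grown at air-liquid interface were incubated 18-24 h at 37 °C in 20% human serum with correctors plus 18 μM tezacaftor and a fixed partner compound (33 nM for concentration series, 44 nM at 1 μM). ISC was read at 0 mV after 20 μM forskolin, minus the post-inhibitor current.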

The target in series [3] is T1, CFTR (F508del/MF-HBE cells). The series can be described thus: Ussing chamber assay of CFTR-mediated short-circuit currents, Assay D (single concentration of 1 μM). The conditions noted are these: with 44 nM potentiator and 18 μM Tezacaftor, 18-24 hours, 20% human serum. Format: cell-based. The gist of the method: as §1
Series [4] has the same target. The series can be described thus: Ussing chamber assay of CFTR-mediated short-circuit currents, Assay A (0.1 μM to 25 μM, 6 concentrations). Format: cell-based. The conditions noted are these: with 33 nM potentiator and 18 μM Tezacaftor, 20% human serum; for Emax: 18-24 hours, read-out: A Max activity (%). The gist of the method: as §1
The conditions of series [5]: amide bond, 13-membered ring, CDMT/NMM, DMF.
The target of series [6] is T1, CFTR (F508del/MF-HBE cells). Kind of series: Ussing chamber assay of CFTR-mediated short-circuit currents, Assay C (0.026 μM to 25 μM, 6 concentrations). Format: cell-based. The conditions noted are these: with 33 nM potentiator and 18 μM Tezacaftor, 20% human serum. The method, boiled down: as §1

Where two headings read alike, the source gives them in different places.

T1 sequence (P13569 with tags, fused parts or gaps DEL508-508): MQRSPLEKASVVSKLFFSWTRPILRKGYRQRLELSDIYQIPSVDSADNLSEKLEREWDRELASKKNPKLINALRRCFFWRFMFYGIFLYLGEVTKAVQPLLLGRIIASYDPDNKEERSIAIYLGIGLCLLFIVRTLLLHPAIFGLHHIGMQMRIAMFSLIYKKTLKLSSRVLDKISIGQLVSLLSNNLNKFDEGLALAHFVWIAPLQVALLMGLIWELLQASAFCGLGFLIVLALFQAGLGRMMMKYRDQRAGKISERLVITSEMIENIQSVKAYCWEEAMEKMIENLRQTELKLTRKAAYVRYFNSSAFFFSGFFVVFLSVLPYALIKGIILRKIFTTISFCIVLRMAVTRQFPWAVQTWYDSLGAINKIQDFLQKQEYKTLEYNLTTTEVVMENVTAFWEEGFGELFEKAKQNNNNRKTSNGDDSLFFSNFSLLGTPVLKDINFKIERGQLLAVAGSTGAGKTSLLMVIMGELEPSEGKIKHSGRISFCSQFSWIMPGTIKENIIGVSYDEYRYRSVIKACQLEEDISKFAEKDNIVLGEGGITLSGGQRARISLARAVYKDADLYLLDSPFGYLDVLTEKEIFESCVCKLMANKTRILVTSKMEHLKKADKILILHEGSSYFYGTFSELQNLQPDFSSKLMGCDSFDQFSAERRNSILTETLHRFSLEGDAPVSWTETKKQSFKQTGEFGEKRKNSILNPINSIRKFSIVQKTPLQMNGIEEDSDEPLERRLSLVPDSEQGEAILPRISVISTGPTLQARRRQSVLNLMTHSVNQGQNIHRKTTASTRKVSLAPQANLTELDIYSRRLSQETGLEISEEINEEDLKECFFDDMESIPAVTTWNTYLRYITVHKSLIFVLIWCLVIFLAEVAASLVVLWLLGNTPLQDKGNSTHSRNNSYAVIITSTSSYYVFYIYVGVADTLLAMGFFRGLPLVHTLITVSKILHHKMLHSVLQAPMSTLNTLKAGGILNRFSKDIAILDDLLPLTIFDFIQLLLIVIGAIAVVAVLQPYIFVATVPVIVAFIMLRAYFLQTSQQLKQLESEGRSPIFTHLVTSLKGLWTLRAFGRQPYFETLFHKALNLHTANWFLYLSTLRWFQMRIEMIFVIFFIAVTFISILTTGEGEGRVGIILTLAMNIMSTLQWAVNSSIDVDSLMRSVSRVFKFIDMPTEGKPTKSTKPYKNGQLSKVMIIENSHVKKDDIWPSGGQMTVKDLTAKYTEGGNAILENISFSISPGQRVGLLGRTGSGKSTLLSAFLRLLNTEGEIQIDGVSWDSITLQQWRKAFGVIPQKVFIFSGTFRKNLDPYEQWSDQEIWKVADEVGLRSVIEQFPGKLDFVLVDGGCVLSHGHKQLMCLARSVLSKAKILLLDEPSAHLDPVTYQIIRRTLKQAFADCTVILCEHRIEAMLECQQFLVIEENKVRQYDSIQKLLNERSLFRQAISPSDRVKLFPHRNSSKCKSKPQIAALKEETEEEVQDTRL

Consider `Cc1cccc(C)c1-c1cc2nc(n1)NS(=O)(=O)c1cccc(c1)C(=O)N(Cc1cnc3oc(C4CC4)cc3n1)C(C1(C(C)C)CC1)CO2` (centres unmarked), for which the ring closure, isolated yield (from Cc1cccc(C)c1-c1cc(OCC(NCc2cnc3oc(C4CC4)cc3n2)C2(C(C)C)CC2)nc(NS(=O)(=O)c2cccc(C(=O)O)c2)n1, amide bond, 13-membered ring, CDMT/NMM, DMF, 25.0 °C) was 41%.
The compound `Cc1cccc(C)c1-c1cc2nc(n1)NS(=O)(=O)c1cccc(c1)C(=O)N(Cc1cn3ccc(Br)cc3n1)[C@H](CC(C)(C)C)CO2` had a ring closure, crude yield in series [1] of 90%.
For the compound `Cc1cccc(C)c1-c1cc2nc(n1)NS(=O)(=O)c1cccc(c1)C(=O)N(Cc1cncc(Cl)n1)[C@H](CCC(C)(C)C)CO2`, where the note is “from Cc1cccc(C)c1-c1cc(OC[C@@H](CCC(C)(C)C)NCc2cncc(Cl)n2)nc(NS(=O)(=O)c2cccc(C(=O)O)c2)n1, amide bond, 13-membered ring, CDMT/NMM, DMF, 15.0 mM, 18.0 h”, the ring closure, isolated yield was determined as 48%.
For the compound `Cc1cccc(C)c1-c1cc2nc(n1)NS(=O)(=O)c1cccc(c1)C(=O)N(Cc1cnc3oc(C4CC4)cc3n1)C(CC1CC(C)(C)C1)CO2` (centres unmarked), under “from Cc1cccc(C)c1-c1cc(OCC(CC2CC(C)(C)C2)NCc2cnc3oc(C4CC4)cc3n2)nc(NS(=O)(=O)c2cccc(C(=O)O)c2)n1, amide bond, 13-membered ring, CDMT/NMM, DMF, 15.9 mM, 25.0 h”, the ring closure, isolated yield is 75%.
Turning to `Cc1cccc(C)c1-c1cc2nc(n1)NS(=O)(=O)c1cccc(c1)C(=O)N(Cc1cnc3oc(C(C)(C)C)cc3n1)[C@H](CC13CC(C1)C3)CO2` [Compound I-99, (11R)-11-(1-bicyclo[1.1.1]pentanylmethyl)-12-[(6-tert-butylfuro[2,3-b]pyrazin-2-yl)methyl]-6-(2,6-dimethylphenyl)-2,2-dioxo-9-oxa-2λ^6-thia-3,5,12,19-tetrazatricyclo[12.3.1.14,8]nonadeca-1(18),4(19),5,7,14,16-hexaen-13-one], in series [2], the Emax is above 60% and the EC50 was below 1000 nM. For the same compound, the “D activity at 1 μM (%)” value in series [3] is “+++ (+++ is >60%)”. In series [4], the Emax is above 60% and the EC50 is below 1000 nM. The same compound gave a ring closure, yield after HPLC in series [5] (from Cc1cccc(C)c1-c1cc(OC[C@@H](CC23CC(C2)C3)NCc2cnc3oc(C(C)(C)C)cc3n2)nc(NS(=O)(=O)c2cccc(C(=O)O)c2)n1, 29.9 mM, 16.0 h) of 54%.
On to `CC1(C)CCC=CC[C@](OCc2ccccc2)(C(F)(F)F)C2=NN=C(O2)c2nc(c(C(F)(F)F)cc2[N+](=O)[O-])N1` (mixture of isomers), for which the ring closure, isolated yield (from C=CCCC(C)(C)Nc1nc(-c2nnc([C@@](CC=C)(OCc3ccccc3)C(F)(F)F)o2)c([N+](=O)[O-])cc1C(F)(F)F, rcm bond, 14-membered ring, Zhan catalyst-1B (20 mol%), DCE, 9.26 mM, 72.0 °C, 2.47 h) turned out to be 40%.
`Cc1cccc(C)c1-c1cc2nc(n1)NS(=O)(=O)c1cccc(c1)C(=O)N(Cc1cnc3oc(C4CC4)cc3n1)C(C(C(C)C)C(C)C)CO2` (single isomer, unassigned) [Compound I-177, 12-[(6-cyclopropylfuro[2,3-b]pyrazin-2-yl)methyl]-6-(2,6-dimethylphenyl)-11-(1-isopropyl-2-methyl-propyl)-2,2-dioxo-9-oxa-2λ^6-thia-3,5,12,19-tetrazatricyclo[12.3.1.14,8]nonadeca-1(18),4(19),5,7,14,16-hexaen-13-one]: the Emax in series [6] (18-24 hours, read-out: C Max activity (%)) is above 60%. Moreover, the EC50 in series [6] is below 1000 nM. In addition, the “D activity at 1 μM (%)” value in series [3] was “+++ (+++ is >60%)”. The same compound displayed a ring closure, isolated yield (from Cc1cccc(C)c1-c1cc(OCC(NCc2cnc3oc(C4CC4)cc3n2)C(C(C)C)C(C)C)nc(NS(=O)(=O)c2cccc(C(=O)O)c2)n1, amide bond, 13-membered ring, CDMT/NMM, DMF, 15.0 mM, 68.0 h) of 31%.
With `Cc1cccc(C)c1-c1cc2nc(n1)NS(=O)(=O)c1cccc(c1)C(=O)N(Cc1cnc3oc(C(C)(C)C)cc3n1)[C@H](CC1(C)CC1)CO2` [Compound I-98, (11R)-12-[(6-tert-butylfuro[2,3-b]pyrazin-2-yl)methyl]-6-(2,6-dimethylphenyl)-11-[(1-methylcyclopropyl)methyl]-2,2-dioxo-9-oxa-2λ^6-thia-3,5,12,19-tetrazatricyclo[12.3.1.14,8]nonadeca-1(18),4(19),5,7,14,16-hexaen-13-one], in series [2], the Emax is above 60% and the EC50 was in the range of 1000 to 3000 nM. Besides, in series [4], the Emax is above 60% and the EC50 was below 1000 nM. In addition, in series [5] (from Cc1cccc(C)c1-c1cc(OC[C@@H](CC2(C)CC2)NCc2cnc3oc(C(C)(C)C)cc3n2)nc(NS(=O)(=O)c2cccc(C(=O)O)c2)n1, 44.5 mM, 16.0 h), the ring closure, yield after HPLC is 55%.
As to `Cc1cccc(C)c1-c1cc2nc(n1)NS(=N)(=O)c1cccc(c1)C(=O)N(Cc1cnc3oc(C4CC4)cc3n1)[C@H](CC(C)(C)C)CO2` (some centres unmarked), for the setting “from 3-[[[4-[(2R)-2-[(6-Cyclopropylfuro[2,3-b]pyrazin-2-yl)methylamino]-4,4-dimethyl-pentoxy]-6-(2,6-dimethylphenyl)pyrimidin-2-yl]amino]sulfonimidoyl]benzoic acid (hydrochloride salt) (isomer B), amide bond, 13-membered ring, CDMT/NMM, DMF, 10.4 mM”, the ring closure, isolated yield amounted to 8%.
As to `Cc1cccc(C)c1-c1cc2nc(n1)NS(=O)(=O)c1cccc(c1)C(=O)N(Cc1cnc3oc(C4CC4)cc3n1)[C@H](COC(C)C)CO2` [Compound I-23, (11R)-12-[(6-cyclopropylfuro[2,3-b]pyrazin-2-yl)methyl]-6-(2,6-dimethylphenyl)-11-(isopropoxymethyl)-2,2-dioxo-9-oxa-2λ^6-thia-3,5,12,19-tetrazatricyclo[12.3.1.14,8]nonadeca-1(18),4(19),5,7,14,16-hexaen-13-one], the Emax in series [2] and in series [4] was above 60% each time. The figures for the EC50 in series [2] and in series [4] were 1000 to 3000 nM and below 1000 nM, respectively. The ring closure, yield after HPLC in series [5] (from Cc1cccc(C)c1-c1cc(OC[C@@H](COC(C)C)NCc2cnc3oc(C4CC4)cc3n2)nc(NS(=O)(=O)c2cccc(C(=O)O)c2)n1, 40.6 mM, 14.0 h) amounted to 52%.
As to `Cc1cccc(C)c1-c1cc2nc(n1)NS(=O)(=O)c1cccc(c1)C(=O)N(Cc1cnc3oc(C4CC4)cc3n1)[C@H](CC13CC(C1)C3)CO2` [Compound I-52, (11R)-11-(1-bicyclo[1.1.1]pentanylmethyl)-12-[(6-cyclopropylfuro[2,3-b]pyrazin-2-yl)methyl]-6-(2,6-dimethylphenyl)-2,2-dioxo-9-oxa-2λ^6-thia-3,5,12,19-tetrazatricyclo[12.3.1.14,8]nonadeca-1(18),4(19),5,7,14,16-hexaen-13-one], in series [2], the Emax was above 60% and the EC50 is 1000 to 3000 nM. Besides, in series [4], the Emax was above 60% and the EC50 was below 1000 nM. In series [5] (from Cc1cccc(C)c1-c1cc(OC[C@@H](CC23CC(C2)C3)NCc2cnc3oc(C4CC4)cc3n2)nc(NS(=O)(=O)c2cccc(C(=O)O)c2)n1, 12.4 mM, 18.0 h), this compound returned a ring closure, yield after HPLC of 66%.
Take `Cc1cccc(C)c1-c1cc2nc(n1)NS(=O)(=O)c1cccc(c1)C(=O)N(Cc1cnc3oc(Br)cc3n1)[C@H](CC1(C)CC1)CO2` [Compound I-254, (11R)-12-[(6-bromofuro[2,3-b]pyrazin-2-yl)methyl]-6-(2,6-dimethylphenyl)-11-[(1-methylcyclopropyl)methyl]-2,2-dioxo-9-oxa-2λ^6-thia-3,5,12,19-tetrazatricyclo[12.3.1.14,8]nonadeca-1(18),4(19),5,7,14,16-hexaen-13-one]: in series [3], the “D activity at 1 μM (%)” value is recorded as “++ (++ is 30-60%)”. This compound also showed a ring closure, isolated yield (from Cc1cccc(C)c1-c1cc(OC[C@@H](CC2(C)CC2)NCc2cnc3oc(Br)cc3n2)nc(NS(=O)(=O)c2cccc(C(=O)O)c2)n1, amide bond, 13-membered ring, CDMT?, 16.0 h) of 65%.
Take `Cc1cccc(C)c1-c1cc2nc(n1)NS(=O)(=O)c1cccc(c1)C(=O)N(Cc1cnc3oc(C4(C)CC4)cc3n1)[C@H](CC1(C)CC1)CO2` [Compound I-96, (11R)-6-(2,6-dimethylphenyl)-12-[[6-(1-methylcyclopropyl)furo[2,3-b]pyrazin-2-yl]methyl]-11-[(1-methylcyclopropyl)methyl]-2,2-dioxo-9-oxa-2λ^6-thia-3,5,12,19-tetrazatricyclo[12.3.1.14,8]nonadeca-1(18),4(19),5,7,14,16-hexaen-13-one]: in series [2], the Emax is above 60% and the concentration giving a half-maximal response (EC50) fell in the range of 1000 to 3000 nM. Besides, in series [4], the Emax is above 60% and the EC50 is below 1000 nM. In addition, in series [5] (from Cc1cccc(C)c1-c1cc(OC[C@@H](CC2(C)CC2)NCc2cnc3oc(C4(C)CC4)cc3n2)nc(NS(=O)(=O)c2cccc(C(=O)O)c2)n1, 50.0 mM, 6.0 h), the ring closure, yield after HPLC was 63%.

The EC50 is the concentration needed to bring the measured effect to its halfway point.
